# Measured values as given in patent publication US12605380B2, “Methods of improving lung function” (Endeavor BioMedicines, Inc., priority 2024, dated 2026).
# Columns and labels:
# Type in all cases: in vivo, human
# [1] = test system: subjects with Idiopathic Pulmonary Fibrosis (IPF); assay: Post-hoc analysis of HRCT images with Qureight deep learning models (Lung8, Vascul8, Fibr8)
# Source text: A post-hoc analysis utilizing deep learning models developed by Qureight (using machine learning methodologies such as 3D convolutional neural networks), were employed to quantify lung volume (Lung8), vessel volume (Vascul8), fibrosis extent (Fibr8) and airway volume (Air8) from High Resolution Computed Tomography images. Deep learning-based CT biomarkers provide an alternate, non-invasive way to predict disease progression and/or assess treatment effects in antifibrotic clinical trials. 34 patients with baseline and week 12 HRCTs were available for model analysis. Of the 34 patients, 18 patients received placebo, and 16 received ENV-101. Group comparisons were performed with an independent t-test, and linear regression assessed variable relationships. Effect sizes were calculated using Hedges' G to account for sample size bias. A p-value<0.05 was considered significant.
# [2] = test system: subjects with Idiopathic Pulmonary Fibrosis (IPF); assay: Phase 2a study in IPF subjects: lung function by forced vital capacity (FVC, ppFVC)
# Procedure: Study Design. Eligible subjects with mild to moderate IPF were randomized to receive placebo or ENV-101 as a daily oral dose for 12 consecutive weeks of treatment. […] Subjects participated in a Screening Visit, a Day 1 randomization visit, a telephone visit at Week 1, visits at Week 6 and Week 12 during the treatment period and a follow-up visit at Week 18. All subjects were randomized to receive either placebo or 200 mg of taladegib (ENV-101). During the treatment period, if a subject experienced an adverse event that is related to the study medication, the dose of the study drug was permitted to be modified based on the type of adverse event observed and after consultation with the Sponsor and Medical Monitor. A study subject was considered to have completed the study if he or she completed all study visits including the last visit or the last scheduled procedure shown in the Schedule of Activities (SoA). • 1. Males and females greater than 40 years of age. • 2. Idiopathic Pulmonary Fibrosis diagnosis based upon […], Japanese Respiratory Society, European Respiratory Society, Latin […] guidelines within the last 7 years. Diagnosis will be confirmed to be consistent with IPF by centrally read high resolution computed tomography (HRCT) obtained at the Screening Visit or previous HRCT scan performed within 30 days of the Screening Visit may be used. • 3. Ability to successfully perform lung function tests. • 4. Percent predicted forced vital capacity (FVC) of >50% at the Screening Visit. • 5. […] Evidence of other known causes of interstitial lung disease (ILD) (e.g., domestic and occupational environmental exposures, connective-tissue disease [CTD], and drug toxicity), lung transplant expected within 12 months of screening or evidence of clinically significant lung disease other than IPF including but not limited to asthma, chronic obstructive pulmonary disease (COPD), uncontrolled pulmonary hypertension and emphysema where computed tomography (CT)-assessed extent of emphysema is greater than extent of fibrosis. • 2. […]
# [3] = test system: subjects with Idiopathic Pulmonary Fibrosis (IPF); assay: Phase 2a study in IPF subjects: quantitative HRCT measurements (TLC, % QILD, % QLF, % QGG)
# Procedure: (§1) Study Design. Eligible subjects with mild to moderate IPF were randomized to receive placebo or ENV-101 as a daily oral dose for 12 consecutive weeks of treatment. […] Subjects participated in a Screening Visit, a Day 1 randomization visit, a telephone visit at Week 1, visits at Week 6 and Week 12 during the treatment period and a follow-up visit at Week 18. All subjects were randomized to receive either placebo or 200 mg of taladegib (ENV-101). During the treatment period, if a subject experienced an adverse event that is related to the study medication, the dose of the study drug was permitted to be modified based on the type of adverse event observed and after consultation with the Sponsor and Medical Monitor. A study subject was considered to have completed the study if he or she completed all study visits including the last visit or the last scheduled procedure shown in the Schedule of Activities (SoA). [table] The dosing regimen evaluated in this study was ENV-101 or placebo administered daily. The dose of ENV-101 studied was 200 mg. Subjects randomized to ENV-101 took two 100 mg tablets daily for the 200 mg dose, while subjects randomized to placebo took two placebo tablets daily. Subjects took both tablets at the same time, and it was recommended that subjects take the dose at the same time each day, ideally in the morning prior to eating. If a subject experienced nausea or other gastrointestinal symptoms, it was recommended that the subject take the dose with a low-fat meal or prior to bedtime.
# [4] = test system: subjects with Idiopathic Pulmonary Fibrosis (IPF); assay: Phase 2a study in IPF subjects: patient reported outcome, UCSD Shortness of Breath Questionnaire (SOBQ); details: 200 mg once a day, vs placebo, not statistically significant
# Procedure: as §1, with “If a subject experienced nausea or other gastrointestinal symptoms, it was recommended that the subject take the dose with a low-fat meal or prior to bedtime.” left out
# [5] = week 12, ENV-101 vs placebo, Hedges' G
smiles,measurement,setting,value
CN(C(=O)c1ccc(F)cc1C(F)(F)F)C1CCN(c2nnc(-c3ccnn3C)c3ccccc23)CC1 [taladegib],fibrosis (conclusion in words),[1]; treated over 12 weeks,reduced
same,lung volume (conclusion in words),[1]; treated over 12 weeks,significantly improved
same,pulmonary vascular volume (conclusion in words),[1]; treated over 12 weeks,significantly reduced
same,Change in Pulmonary vascular volume (normalised to lung volume),"[1]; week 12, 16 patients on ENV-101, p=0.0007 vs placebo",−0.25%
same,"Lung volume change (total lung volume, Lung8)","[1]; week 12, 16 patients on ENV-101, p=0.014 vs placebo",142.28 mL
same,"Change in Fibrosis (extent, normalised to lung volume)","[1]; week 12, 16 patients on ENV-101, p=0.063 vs placebo",−1.32%
same,"effect size, change in pulmonary vascular volume",[1]; [5],−1.28
same,"effect size, lung volume change",[1]; [5],0.87
same,mean change from baseline of percent predicted forced vital capacity (ppFVC),"[2]; IPF subjects, 200 mg QD, at 6 weeks (n=16)",1.7%
same,"effect size, % predicted FVC","[2]; post-hoc analysis, ENV-101 vs placebo, Hedges' G",0.78
same,% predicted FVC compared to placebo,"[2]; post-hoc analysis, patients with baseline and week 12 HRCT, p=0.03",significant improvement
same,change from baseline in percent quantitative ground glass opacity (% QGG),[3]; 200 mg once a day for 12 weeks,about −4.6%
same,change from baseline in percent quantitative interstitial lung disease (% QILD),[3]; 200 mg once a day for 12 weeks,about −9%
same,change from baseline in percent quantitative lung fibrosis (% QLF),[3]; 200 mg once a day for 12 weeks,about −2%
same,increase in total lung capacity (TLC),"[3]; 200 mg once a day for 12 weeks, p=0.005",about 200 mL
same,"increase in total lung capacity (TLC), percent","[3]; 200 mg once a day, over the three month treatment period",about 8%
same,mean change from baseline of responses to the UCSD Shortness of Breath Questionnaire (SOBQ),[4],improvement
